# Source: patent US20250283872A1, “EXPRESSION SYSTEMS FOR THE ALPHA2ALPHA5BETA2 NICOTINIC ACETYLCHOLINE RECEPTOR AND METHODS OF USE THEREOF” (Janssen Pharmaceutica NV, priority 2021, published 2025)
# Key:
# α2α5β2 nAChR = α2α5β2 nAChR (Homo sapiens, UniProt P17787+P30532+Q15822)
# Procedure: (§1) Then transfer the plate to 30° C. with 5% CO2 in a humidified atmosphere for 24-48 hours.
# α2β2 nAChR = α2β2 nAChR (Homo sapiens, UniProt P17787+Q15822); settings: HEK293T cells; co-transfection with FAM163B or TMIE (plus SAT1+CHAT) versus SAT1+CHAT
# Sequence of α2β2 nAChR (Q15822 27-529): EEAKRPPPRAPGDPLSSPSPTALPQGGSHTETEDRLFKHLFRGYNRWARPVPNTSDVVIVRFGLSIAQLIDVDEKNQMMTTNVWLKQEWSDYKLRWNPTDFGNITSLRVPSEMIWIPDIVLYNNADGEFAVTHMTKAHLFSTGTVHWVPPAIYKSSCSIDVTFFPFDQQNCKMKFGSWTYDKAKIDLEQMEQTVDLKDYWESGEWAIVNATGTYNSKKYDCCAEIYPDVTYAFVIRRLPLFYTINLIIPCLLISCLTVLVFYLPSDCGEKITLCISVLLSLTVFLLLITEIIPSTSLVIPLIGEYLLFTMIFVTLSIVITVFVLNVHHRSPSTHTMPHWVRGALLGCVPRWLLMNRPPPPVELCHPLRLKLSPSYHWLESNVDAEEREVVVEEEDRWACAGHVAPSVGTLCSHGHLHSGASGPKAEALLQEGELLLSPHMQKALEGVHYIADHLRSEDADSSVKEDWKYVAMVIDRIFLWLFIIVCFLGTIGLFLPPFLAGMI
# Sequence of α2β2 nAChR (P17787 26-502): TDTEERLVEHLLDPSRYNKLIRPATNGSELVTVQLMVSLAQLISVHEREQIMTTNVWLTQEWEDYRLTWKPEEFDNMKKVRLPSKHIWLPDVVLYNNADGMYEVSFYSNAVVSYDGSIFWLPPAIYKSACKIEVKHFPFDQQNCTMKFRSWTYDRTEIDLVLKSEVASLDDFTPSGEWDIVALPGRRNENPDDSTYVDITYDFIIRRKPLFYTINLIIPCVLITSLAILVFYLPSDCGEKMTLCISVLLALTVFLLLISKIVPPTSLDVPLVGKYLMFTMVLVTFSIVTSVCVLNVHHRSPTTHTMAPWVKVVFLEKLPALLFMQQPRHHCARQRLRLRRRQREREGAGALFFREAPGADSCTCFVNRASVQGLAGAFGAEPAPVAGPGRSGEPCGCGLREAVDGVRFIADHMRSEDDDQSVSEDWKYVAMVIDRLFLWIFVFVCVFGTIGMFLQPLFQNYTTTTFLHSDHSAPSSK
# Procedure: as §1
# Sequence of α2α5β2 nAChR (Q15822 27-529): as the sequence (Q15822 27-529) above
# Sequence of α2α5β2 nAChR (P30532 23-468): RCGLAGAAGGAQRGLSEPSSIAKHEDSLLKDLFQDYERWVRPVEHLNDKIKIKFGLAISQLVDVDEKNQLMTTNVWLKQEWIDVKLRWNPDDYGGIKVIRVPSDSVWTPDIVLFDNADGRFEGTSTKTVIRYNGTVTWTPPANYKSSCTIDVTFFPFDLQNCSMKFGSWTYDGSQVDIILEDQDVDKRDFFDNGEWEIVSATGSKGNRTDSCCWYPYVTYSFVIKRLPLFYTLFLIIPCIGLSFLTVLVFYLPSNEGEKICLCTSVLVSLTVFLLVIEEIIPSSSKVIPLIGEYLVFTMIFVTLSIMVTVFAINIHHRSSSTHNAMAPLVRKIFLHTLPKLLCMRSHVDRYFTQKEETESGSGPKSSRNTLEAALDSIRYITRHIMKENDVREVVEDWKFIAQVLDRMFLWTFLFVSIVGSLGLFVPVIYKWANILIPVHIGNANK
# Sequence of α2α5β2 nAChR (P17787 26-502): as the sequence (P17787 26-502) above
smiles,measurement,setting,value
"CN1CCCC1c1cccnc1 (stereo not drawn) [nicotine, Nicotine]","nicotine potency (nicotine-evoked calcium flux, FIG. 2)","α2α5β2 nAChR; HEK293T cells, co-transfection with FAM163B or TMIE (plus SAT1+CHAT) versus SAT1+CHAT",left shifted
same,EC80 (nicotine-evoked α2α5β2 nAChR mediated calcium flux),"α2α5β2 nAChR; recombinant cells, Ca5 dye, FLIPR TETRA",1 µM
same,"nicotine potency (nicotine-evoked calcium flux, FIG. 2)",α2β2 nAChR,left shifted
